ChEMBL document CHEMBL1132430, “Protein kinase C ligands based on tetrahydrofuran templates containing a new set of phorbol ester pharmacophores” (J Med Chem, 1999)

Target: Protein kinase C alpha type (Homo sapiens, UniProt P17252)
Test: Displacement of [3H-20]-phorbol 12,13-dibutyrate(PDBU) from recombinant Protein kinase C alpha

Row | SMILES | Ki
1 | CCCCCCCCCCCCCC(=O)OC[C@]1(CO)CC[C@H](CC(=O)OC)O1 | 2.72 µM
2 | CCCCCCCC/C=C\CCCCCCCCOC(=O)/C=C1/COC(CO)(COC(C)=O)C1 (stereo not drawn) | 1.86 µM
3 | CCCCCCCCCCCCCCOC(=O)C[C@@H]1CC[C@@](CO)(COC(=O)CCCCC)O1 | 12.8 µM
4 | CCCCCCCCCCCCCCOC(=O)C[C@H]1CC[C@@](CO)(COC(=O)CCCCC)O1 | 2.38 µM
5 | CCCCCCCCCCCCCC(=O)OC[C@]1(CO)CC[C@@H](CC(=O)OC)O1 | 10.8 µM

Compounds with a lower Ki, results first:

Row | Ki | SMILES
6 | 0.35 µM | CCCCCCCCCCCCCC(=O)OCC1(CO)C/C(=C/C(=O)OC)CO1 (stereo not drawn)
7 | 0.35 µM | CCCCCCCCCCCCCC(=O)OCC1(CO)C/C(=C\C(=O)OC)CO1 (stereo not drawn)
8 | 0.85 µM | CCCCCCCC/C=C\CCCCCCCCOC(=O)/C=C1\COC(CO)(COC(C)=O)C1 (stereo not drawn)
